Laboratory results reported in PubChem BioAssay (NCI).
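Step 1: Grow cells in 96-well plates. Step 2: Expose to compound for 48 hours at 5 concentrations. Step 3: Interpolate endpoints linearly; if unreached, use highest concentration. The concentration for 50% growth inhibition is given as GI50. At the TGI there is no net growth.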

Experiments:
Experiment in all cases: DTP human tumour cell line panel, 48 h
[1] = tested on: NCI-H23 lung
[2] = tested on: NCI-H460 lung
[3] = tested on: NCI-H522 lung
[4] = tested on: NCI/ADR-RES ovarian
[5] = tested on: OVCAR-3 ovarian
[6] = tested on: OVCAR-4 ovarian
[7] = tested on: OVCAR-5 ovarian
[8] = tested on: OVCAR-8 ovarian
[9] = tested on: PC-3 prostate
[10] = tested on: RPMI-8226 leukemia
[11] = tested on: SF-268 CNS
[12] = tested on: SF-295 CNS
[13] = tested on: SF-539 CNS
[14] = tested on: SK-MEL-2 melanoma
[15] = tested on: SK-MEL-28 melanoma
[16] = tested on: SK-MEL-5 melanoma
[17] = tested on: SK-OV-3 ovarian
[18] = tested on: SN12C renal
[19] = tested on: SNB-19 CNS
[20] = tested on: SNB-75 CNS
[21] = tested on: SR leukemia
[22] = tested on: SW-620 colon
[23] = tested on: T-47D breast
[24] = tested on: TK-10 renal
[25] = tested on: U251 CNS
[26] = tested on: UACC-257 melanoma
[27] = tested on: UACC-62 melanoma
[28] = tested on: UO-31 renal

## CCCCN1C=CCN(CCCC)C1
[1]
  GI50: 63.8 µM
  TGI: > 100 µM
[2]
  GI50: 47.5 µM
  TGI: > 100 µM
[3]
  GI50: 52.5 µM
  TGI: > 100 µM
[4]
  GI50: > 100 µM
  TGI: > 100 µM
[5]
  GI50: 23.8 µM
  TGI: 57.2 µM
[6]
  GI50: 58.8 µM
  TGI: > 100 µM
[7]
  GI50: > 100 µM
  TGI: > 100 µM
[8]
  GI50: 61.7 µM
  TGI: > 100 µM
[9]
  GI50: 37.7 µM
  TGI: > 100 µM
[10]
  GI50: 23.6 µM
  TGI: 93.6 µM
[11]
  GI50: 53 µM
  TGI: > 100 µM
[12]
  GI50: 49.8 µM
  TGI: > 100 µM
[13]
  GI50: > 100 µM
  TGI: > 100 µM
[14]
  GI50: 46.3 µM
  TGI: > 100 µM
[15]
  GI50: 86.9 µM
  TGI: > 100 µM
[16]
  GI50: 30.1 µM
  TGI: > 100 µM
[17]
  GI50: > 100 µM
  TGI: > 100 µM
[18]
  GI50: 71.7 µM
  TGI: > 100 µM
[19]
  GI50: 46.4 µM
  TGI: > 100 µM
[20]
  GI50: > 100 µM
  TGI: > 100 µM
[21]
  GI50: > 100 µM
  TGI: > 100 µM
[22]
  GI50: 70.1 µM
  TGI: > 100 µM
[23]
  GI50: 27.3 µM
  TGI: > 100 µM
[24]
  GI50: > 100 µM
  TGI: > 100 µM
[25]
  GI50: 32.2 µM
  TGI: > 100 µM
[26]
  GI50: 22.8 µM
  TGI: 80.7 µM
[27]
  GI50: 48.1 µM
  TGI: > 100 µM
[28]
  GI50: > 100 µM
  TGI: > 100 µM
